The record followed here is US12637469B2, “1H-pyrazole derivative and application thereof as dual target inhibitor of Syk and VEGFR2” (Ocumension Therapeutics (Suzhou) Co., Ltd., priority 2020, dated 2026).

Structures are written as SMILES.

This test concerns the target VEGFR2 kinase (KDR enzyme) (Homo sapiens, UniProt P35968). In words: In vitro inhibitory effect on VEGFR2 kinase (ADP-Glo enzymatic experiment). The format is biochemical. Particulars: read-out: IC50 (nM) for inhibition of VEFGR2 enzyme. The procedure:
The VEGFR2 kinase assay kit is intended for measuring VEGFR2 kinase activity using Kinase-Glo®MAX as a detection reagent, and compound screening and analysis were conducted using the IC50 value of the compound as an indicator.
The ADP-GLO™ Kinase Assay is an analytical reaction in which a luminescent kinase is used to determine the adenosine diphosphate formed by the kinase; ADP is converted to ATP, i.e., an optical signal is generated by Ultra-Glo™ luciferase. The optical signal is positively correlated with ADP quantity and kinase activity. This assay is ideal for determining the activity of the compound, making it ideal for primary screening and kinase selectivity analysis. The ADP-Glo™ Kinase Assay can be used to monitor the activity of virtually any ADP-producing enzyme such as a kinase orATPase: • 1) The enzyme, substrate, ATP and inhibitor were diluted in a kinase buffer; • 2) 384-well plate: 1 μL of inhibitor or (5% dimethyl sulfoxide solution), 2 μL of KDR enzyme, 2 μL of matrix/ATP mixture; • 3) the mixture was incubated at room temperature for 60 minutes; • 4) 5 μL of ADP-GLO™ reagent was added; • 5) the mixture was incubated for 40 minutes at room temperature; • 6) 10 μL of kinase detection reagent was added; • 7) the mixture was incubated at room temperature for 30 minutes; • 8) the luminescence was recorded (integration time 0.5-1 sec). The data was shown in relative light units (rlu), which was directly related to the amount of […]. There was correlation between the percent of the conversion from ATP to ADP for each kinase amount and the corresponding signal-to-background ratio. • 9) Data analysis: (a) KDR enzyme was titrated with 50 μM of ATP, and the luminescent signal produced by KDR enzyme was shown; (b) staurosporine dose response was generated with 1.5 ng of KDR to determine the IC50 value of the inhibitor.

In general, IC50 refers to the concentration at which inhibition is half-maximal.

Sequence of VEGFR2 kinase (KDR enzyme) (P35968 20-1356, species assumed): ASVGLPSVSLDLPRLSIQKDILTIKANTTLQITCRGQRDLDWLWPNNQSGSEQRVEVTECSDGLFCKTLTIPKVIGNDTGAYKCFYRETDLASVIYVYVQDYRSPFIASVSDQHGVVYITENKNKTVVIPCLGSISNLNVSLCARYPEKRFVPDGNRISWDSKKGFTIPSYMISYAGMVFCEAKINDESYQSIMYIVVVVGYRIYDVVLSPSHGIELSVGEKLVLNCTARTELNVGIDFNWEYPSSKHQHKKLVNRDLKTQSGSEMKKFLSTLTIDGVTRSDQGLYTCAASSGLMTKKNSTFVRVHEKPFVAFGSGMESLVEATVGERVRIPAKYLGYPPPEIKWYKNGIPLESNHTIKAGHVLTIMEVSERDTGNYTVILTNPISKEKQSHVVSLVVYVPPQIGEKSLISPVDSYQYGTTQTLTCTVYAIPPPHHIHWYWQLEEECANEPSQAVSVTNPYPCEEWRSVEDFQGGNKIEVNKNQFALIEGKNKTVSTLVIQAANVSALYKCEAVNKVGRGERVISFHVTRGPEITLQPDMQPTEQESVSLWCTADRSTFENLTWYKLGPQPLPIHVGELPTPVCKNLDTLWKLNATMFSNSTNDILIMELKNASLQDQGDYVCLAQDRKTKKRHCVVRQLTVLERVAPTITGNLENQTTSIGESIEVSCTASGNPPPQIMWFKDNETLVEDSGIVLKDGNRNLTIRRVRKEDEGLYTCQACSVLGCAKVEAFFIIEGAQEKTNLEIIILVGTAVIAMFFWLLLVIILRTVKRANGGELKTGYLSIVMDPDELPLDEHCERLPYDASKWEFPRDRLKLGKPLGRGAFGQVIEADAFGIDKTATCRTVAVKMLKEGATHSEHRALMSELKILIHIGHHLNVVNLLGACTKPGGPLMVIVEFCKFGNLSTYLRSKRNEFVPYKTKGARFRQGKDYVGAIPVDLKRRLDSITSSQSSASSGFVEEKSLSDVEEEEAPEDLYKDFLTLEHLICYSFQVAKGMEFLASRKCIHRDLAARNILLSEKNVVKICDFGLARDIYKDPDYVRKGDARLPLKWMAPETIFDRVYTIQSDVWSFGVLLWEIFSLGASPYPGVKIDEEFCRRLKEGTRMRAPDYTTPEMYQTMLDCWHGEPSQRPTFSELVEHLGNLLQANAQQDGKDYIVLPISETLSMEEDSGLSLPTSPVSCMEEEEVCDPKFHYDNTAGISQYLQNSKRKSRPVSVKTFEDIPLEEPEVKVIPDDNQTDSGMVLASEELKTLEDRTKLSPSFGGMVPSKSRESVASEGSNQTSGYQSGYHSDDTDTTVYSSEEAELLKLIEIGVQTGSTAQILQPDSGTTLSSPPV

As to `c1cn2c(n1)c(Nc1ccc(N3CCOCC3)cc1)nc1ccc(-c3cn[nH]c3)cc12` [Compound 1], the IC50 was found to be 23 nM.
